Source: patent publication US20130011411A1, “METHODS AND COMPOSITIONS FOR THE DIAGNOSIS, PROGNOSIS, AND TREATMENT OF CANCER” (priority 2010, published 2013)

System: breast cancer cell lines
Assay: DACH1 mRNA expression after methylation inhibitor treatment
Type: cell-based
Conditions: different breast cancer cell lines; data not shown
Source text: DNA methylation is a common mechanism leading to tumor suppressor inactivation.

Compound: Nc1ncn([C@H]2C[C@H](O)[C@@H](CO)O2)c(=O)n1 [5-aza-2′-deoxycytidine]
- DACH1 mRNA expression: induced DACH1 mRNA expression
